Data on two molecules can be found in ChEMBL document CHEMBL4602732, “Optimizing Pyrazolopyrimidine Inhibitors of Calcium Dependent Protein Kinase 1 for Treatment of Acute and Chronic Toxoplasmosis” (J Med Chem, 2020).

The IC50 is the concentration needed to halve the response being measured. As a reminder, the half-life is the time in which the quantity being followed falls by half. High values mean slow loss, low ones fast loss. The EC50 is the midpoint of the concentration-response curve. One may read the AUC as concentration integrated over time. Broadly, the inhibition is the share of the control response that was lost under treatment.

Structures are written as SMILES. Active and inactive are the calls of the source. No cut-off for these calls is given here.

Data set [1] is described as follows: Cytotoxicity against human CMEC/D3 cells assessed as cell growth at 20 uM measured after 72 hrs by cellTiter 96 AQueous non-radioactive cell proliferation assay relative to control. Type of data set: cell-based, hCMEC/D3. The settings on record: read-out: Activity.
For data set [2], the target named is T1, Aldehyde oxidase (Homo sapiens, UniProt Q06278).
T1 sequence (Q06278 whole entry): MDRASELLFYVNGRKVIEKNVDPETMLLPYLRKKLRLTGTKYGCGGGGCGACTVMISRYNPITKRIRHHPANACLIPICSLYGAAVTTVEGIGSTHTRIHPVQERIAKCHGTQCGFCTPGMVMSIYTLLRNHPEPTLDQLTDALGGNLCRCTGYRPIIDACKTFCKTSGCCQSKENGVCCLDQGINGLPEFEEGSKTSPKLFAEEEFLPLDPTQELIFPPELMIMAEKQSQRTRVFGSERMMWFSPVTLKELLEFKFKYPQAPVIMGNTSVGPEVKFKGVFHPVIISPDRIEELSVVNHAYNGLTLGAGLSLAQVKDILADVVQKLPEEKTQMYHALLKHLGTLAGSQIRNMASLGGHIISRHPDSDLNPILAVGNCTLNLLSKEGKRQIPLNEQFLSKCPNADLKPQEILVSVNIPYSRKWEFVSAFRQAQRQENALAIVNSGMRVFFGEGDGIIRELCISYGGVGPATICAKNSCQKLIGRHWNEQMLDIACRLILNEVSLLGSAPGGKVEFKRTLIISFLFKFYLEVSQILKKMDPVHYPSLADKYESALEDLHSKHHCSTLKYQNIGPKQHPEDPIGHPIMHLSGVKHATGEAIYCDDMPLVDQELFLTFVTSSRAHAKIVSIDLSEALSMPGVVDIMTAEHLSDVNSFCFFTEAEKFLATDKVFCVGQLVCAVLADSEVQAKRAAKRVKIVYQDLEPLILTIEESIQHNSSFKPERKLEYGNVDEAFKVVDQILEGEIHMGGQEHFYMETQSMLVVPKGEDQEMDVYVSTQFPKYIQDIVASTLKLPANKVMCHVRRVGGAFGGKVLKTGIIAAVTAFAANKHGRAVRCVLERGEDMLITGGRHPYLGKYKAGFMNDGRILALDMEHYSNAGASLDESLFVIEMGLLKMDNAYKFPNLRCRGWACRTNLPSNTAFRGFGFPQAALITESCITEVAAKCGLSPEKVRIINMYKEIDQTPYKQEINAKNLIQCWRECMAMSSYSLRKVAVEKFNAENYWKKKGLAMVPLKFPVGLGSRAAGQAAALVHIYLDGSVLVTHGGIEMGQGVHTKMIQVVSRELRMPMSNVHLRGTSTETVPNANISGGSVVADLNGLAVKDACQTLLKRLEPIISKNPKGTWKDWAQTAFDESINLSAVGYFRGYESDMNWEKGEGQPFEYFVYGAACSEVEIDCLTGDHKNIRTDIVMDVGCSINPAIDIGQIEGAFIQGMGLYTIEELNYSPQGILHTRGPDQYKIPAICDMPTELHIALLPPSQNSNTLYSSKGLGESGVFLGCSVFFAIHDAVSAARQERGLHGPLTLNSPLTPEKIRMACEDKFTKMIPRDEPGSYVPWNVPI
Kind of data set: Drug metabolism in human liver S9 fraction assessed as aldehyde oxidase-mediated drug metabolism by measuring rate of parent compound decay at 1 uM measured after 90 mins by LC-MS/MS analysis. Type of data set: ADME, subcellular.

The nature of data set [3]: Cytotoxicity against human HepG2 cells assessed as cell growth at 20 uM measured after 72 hrs by cellTiter 96 AQueous non-radioactive cell proliferation assay relative to control. Type of data set: cell-based. Particulars: read-out: Activity.
The target in data set [4] is Voltage-gated inwardly rectifying potassium channel KCNH2 (Homo sapiens, UniProt Q12809). As to the kind of experiment: Inhibition of human ERG expressed in CHOK1 cells by patch-clamp electrophysiology assay. Type of data set: cell-based, CHO-K1. (Patch clamp records ionic current or voltage across a cell membrane.)
Data set [5] is described as follows: Half life in mouse liver microsomes at 10 uM preincubated for 10 mins followed by NADPH addition by LC-MS/MS analysis. Type of data set: ADME, Microsome. Particulars: liver microsomes. On the technique in general: Liver microsomes are vesicles of endoplasmic reticulum, rich in cytochrome P450 enzymes.
The nature of data set [6]: Intrinsic clearance in human liver microsomes at 10 uM preincubated for 10 mins followed by NADPH addition by LC-MS/MS analysis. Type of data set: ADME, Microsome. Particulars: read-out: CLH.
Data set [7] in a line: Cytotoxicity against HFF monolayers assessed as cell growth measured after 72 hrs by luciferase reporter gene assay relative to control. Particulars: human, read-out: Activity. Type of data set: cell-based.
A short description of data set [8]: Cytotoxicity against MDCK cells assessed as cell growth at 20 uM measured after 72 hrs by cellTiter 96 AQueous non-radioactive cell proliferation assay relative to control. Particulars: dog, read-out: Activity. Type of data set: cell-based, Canis lupus familiaris.
Data set [9] can be described thus: Genotoxicity in Salmonella typhimurium TA98 at 0.004 to 5 mg/ml measured after 90 mins in presence of rat S9 fraction by mini-Ames test. It is filed as toxicity, subcellular. Particulars: salmonella enterica subsp. enterica serovar typhimurium. A general note: The Ames test detects mutagens through reverse mutation in bacteria.
Data set [10] can be described thus: Protein binding in mouse plasma assessed as unbound fraction at 2 uM measured after 4 hrs by LC-MS/MS analysis. It is filed as ADME, cell-free.
Data set [11] concerns CHO-K1. Kind of data set: Genotoxicity in CHOK1 cells measured after 24 hrs in absence of Sprague-Dawley rat liver S9 fraction by Hoechst/calcein-AM staining based micronucleus test. Type of data set: toxicity, cell-based, Cricetulus griseus. Particulars: chinese hamster, cho-k1, 24 h.
Data set [12] in a line: Genotoxicity in Salmonella typhimurium TA98 at 0.004 to 5 mg/ml measured after 90 mins in absence of rat S9 fraction by mini-Ames test. It is filed as toxicity. Particulars: salmonella enterica subsp. enterica serovar typhimurium.
For data set [13], the system named is Toxoplasma gondii. As to the kind of experiment: Antiparasitic activity against 2F clone of type 1 Toxoplasma gondii RH tachyzoites expressing beta-galactosidase infected in HFF assessed as reduction in parasite growth measured after 72 hrs by chlorophenol Red-beta-D-galactopyranoside substrate based assay. Type of data set: functional, organism-based.
The nature of data set [14]: Cytotoxicity against human Caco2 cells assessed as cell growth at 20 uM measured after 72 hrs by cellTiter 96 AQueous non-radioactive cell proliferation assay relative to control. Particulars: read-out: Activity. It is filed as cell-based, Caco-2.
Data set [15] can be described thus: AUC in CD1 mouse at 3 mg/kg, iv or 10 mg/kg, po administered via gavage by LC-MS/MS analysis. It is filed as ADME, organism-based. The settings on record: in vivo.
A short description of data set [16]: Toxicity in CD1 mouse assessed as adverse effect at 600 mg/kg measured for 7 days. It is filed as organism-based. The settings on record: in vivo, 168 h.
Data set [17] concerns the target PTK6 (Homo sapiens, UniProt Q13882). As to the kind of experiment: Inhibition of recombinant human full-length His-tagged PTK6 cytoplasmic domain expressed in baculovirus expression system at 1 uM using Fluorescein-Poly GT as substrate by Lanthascreen assay relative to control. The settings on record: probe Fluorescein-Poly GT.
The subject of data set [18] is Toxoplasma gondii. As to the kind of experiment: Protection against reactivation of type 2 Toxoplasma gondii ME49 infection in sulfadiazin-treated Ifngr1-/- CD1 mouse assessed as reduction in serological conversion at 60 mg/kg, po administered twice daily via gavage for 21 days followed by brain isolation on 30 days post-infection and co-culture with Ifngr1-/- CD1 mouse. It is filed as functional, organism-based.

Data set [19] has as its system Toxoplasma gondii. As to the kind of experiment: Antiparasitic activity against type 1 Toxoplasma gondii RH tachyzoites infected in CD1 mouse assessed as reduction in mouse death at 60 mg/kg, po administered once daily via gavage for 7 days by bioluminescence assay. It is filed as functional, organism-based.
Data set [20] relates to Toxoplasma gondii. As to the kind of experiment: Antiparasitic activity against type 1 Toxoplasma gondii RH tachyzoites infected in CD1 mouse assessed as reduction in mouse death at 15 mg/kg, po administered four times daily via gavage for 7 days by bioluminescence assay. It is filed as functional, organism-based.
Data set [21] can be described thus: Kinetic solubility of the compound in pH 7.4 phosphate buffer measured after 24 hrs by UV-HPLC analysis. The settings on record: pH 7.4, 24 h. It is filed as physicochemical.

Chain of Voltage-gated inwardly rectifying potassium channel KCNH2 (Q12809 whole entry): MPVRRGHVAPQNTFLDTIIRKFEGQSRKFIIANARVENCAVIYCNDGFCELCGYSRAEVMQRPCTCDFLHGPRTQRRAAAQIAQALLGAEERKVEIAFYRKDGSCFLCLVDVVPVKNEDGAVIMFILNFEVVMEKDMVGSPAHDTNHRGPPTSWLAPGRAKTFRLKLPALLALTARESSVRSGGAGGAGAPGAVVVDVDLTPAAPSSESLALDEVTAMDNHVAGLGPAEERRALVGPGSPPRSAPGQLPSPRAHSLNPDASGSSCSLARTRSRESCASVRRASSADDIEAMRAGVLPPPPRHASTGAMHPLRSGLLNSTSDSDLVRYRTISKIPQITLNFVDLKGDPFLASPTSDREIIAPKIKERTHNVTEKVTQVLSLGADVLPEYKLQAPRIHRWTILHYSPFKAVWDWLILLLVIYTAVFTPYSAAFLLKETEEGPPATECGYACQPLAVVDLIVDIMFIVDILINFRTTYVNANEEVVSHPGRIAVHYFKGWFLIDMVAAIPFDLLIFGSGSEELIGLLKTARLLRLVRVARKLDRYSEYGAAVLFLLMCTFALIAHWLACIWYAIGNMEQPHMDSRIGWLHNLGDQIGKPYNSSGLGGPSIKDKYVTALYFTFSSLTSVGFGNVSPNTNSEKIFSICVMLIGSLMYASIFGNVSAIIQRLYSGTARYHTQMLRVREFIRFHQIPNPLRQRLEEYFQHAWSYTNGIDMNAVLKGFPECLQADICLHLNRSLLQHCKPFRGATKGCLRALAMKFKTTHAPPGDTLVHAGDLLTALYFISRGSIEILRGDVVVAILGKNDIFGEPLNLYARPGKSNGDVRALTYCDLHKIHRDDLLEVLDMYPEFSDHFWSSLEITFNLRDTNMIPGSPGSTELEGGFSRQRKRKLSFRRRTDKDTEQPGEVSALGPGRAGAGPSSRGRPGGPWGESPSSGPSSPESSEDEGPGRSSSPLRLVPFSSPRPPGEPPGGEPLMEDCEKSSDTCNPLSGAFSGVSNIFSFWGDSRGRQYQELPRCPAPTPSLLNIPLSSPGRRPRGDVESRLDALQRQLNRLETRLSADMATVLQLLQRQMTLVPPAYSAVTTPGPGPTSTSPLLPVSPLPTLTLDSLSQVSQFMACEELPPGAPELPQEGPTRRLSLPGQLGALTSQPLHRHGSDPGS
Chain of PTK6 (Q13882 whole entry, the tested form may be a part): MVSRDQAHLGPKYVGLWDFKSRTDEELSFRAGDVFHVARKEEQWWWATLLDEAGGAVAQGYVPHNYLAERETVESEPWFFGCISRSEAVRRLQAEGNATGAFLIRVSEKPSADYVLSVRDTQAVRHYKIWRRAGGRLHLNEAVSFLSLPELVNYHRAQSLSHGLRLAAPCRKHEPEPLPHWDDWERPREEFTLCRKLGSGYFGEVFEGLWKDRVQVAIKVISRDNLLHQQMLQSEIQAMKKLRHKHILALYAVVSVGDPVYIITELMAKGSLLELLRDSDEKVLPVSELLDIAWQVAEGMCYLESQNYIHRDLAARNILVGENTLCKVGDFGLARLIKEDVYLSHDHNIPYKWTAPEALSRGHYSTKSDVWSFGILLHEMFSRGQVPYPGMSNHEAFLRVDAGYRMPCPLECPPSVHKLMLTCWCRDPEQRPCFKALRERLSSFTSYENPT

With `N#Cc1ccnc(Oc2nn([C@H]3C[C@H](F)C3)c3ncnc(N)c23)c1`, the viability at 72 h, 20 µM came to 135% in data set [1], 101% in [3], 79.4% in [8] and 95.5% in data set [14]. The Drug metabolism in data set [2] is less than 3.2 µL/min/mg. In addition, in [4], the IC50 was greater than 30000 nM. For the same molecule, the half-life at 10 µM in [5] was greater than 2.42 h. In [6], the CLint scaled at 10 µM is less than 8.6 mL/min/kg. Also, in [7], the viability at 72 h came to 112%. In addition, the Activity result in data set [9] is “Non-Toxic”; in data set [11] it was greater than 100 µM; in [12] it was “Non-Toxic”; in [16] it was “Non-Toxic”. Moreover, the Fu in data set [10] was determined as 29.3%. In data set [13], the EC50 came to 201 nM. This molecule came in with an AUC in data set [15] of 3140 ng·h/mL. Besides, in data set [17], the inhibition at 1 µM was greater than 50%.

With `Nc1ncnc2c1c(Oc1cc(C(F)(F)F)ccn1)nn2C1CC1`, the viability at 72 h, 20 µM in [1] stood at 132%; in data set [3], 104%; in [8], 97.8%; in data set [14], 93.3%. For the same molecule, the Drug metabolism in data set [2] is less than 3.2 µL/min/mg. Also, the IC50 in data set [4] was greater than 30000 nM. This molecule showed a half-life at 10 µM in data set [5] greater than 2.42 h. In addition, the CLint scaled at 10 µM in data set [6] is less than 8.6 mL/min/kg. Also, the viability at 72 h in data set [7] was 106%. Further, the Activity result is “Non-Toxic” in data set [9], greater than 1000 µM in data set [11], “Non-Toxic” in data set [12] and “Non-Toxic” in data set [16]. Further, in data set [10], the Fu amounted to 15.6%. Further, the outcome in data set [18], in data set [19] and in data set [20] was Active. Further, in [13], the EC50 is 172 nM. The AUC in data set [15] is 2677 ng·h/mL. Further, the Kinetic_solubility in [21] is 191 µM. In addition, the inhibition at 1 µM in data set [17] is greater than 50%.
